The values that follow come from US9771560B2, “High-throughput image-based chemical screening in zebrafish blastomere cell culture” (CHILDREN'S MEDICAL CENTER CORPORATION, priority 2012, dated 2017).

Values joined by “and” are separate entries in the source; they are usually repeats but may differ in a detail not shown here. Equal values may be shown once.

Test [1] has as its system satellite cells from C57BL/6J mice. As to the kind of experiment: In vitro expansion of mouse satellite cells (cell count). The test is classed as cell-based. The following applies: 5 days in culture. Here is the method: (§1) SMP isolation was performed as previously described (Cerletti et al., 2008; Sherwood et al., 2004). Briefly, MFA cells were prepared from intact skeletal muscles (EDL, gastrocnemius, quadriceps, soleus, TA, triceps brachii, abdominal) by digesting the muscles with collagenase type II and then dispase enzymes. MFA cells were stained for isolation of CD45^−Sca-1^−Mac-1^−CXCR4^+ b1-integrin^+ cell population by FACS. For in vitro expansion experiments, SMPs were seeded on collagen/laminin-coated plates in F10 (Gibco) containing 20% horse serum (Atlanta Biologics), 1% penicillin-streptomycin (Invitrogen) and 1% glutamax (Invitrogen). […] Cells were counted or used for transplantation after 5 days in culture. For Myogenic colony formation assay cells were fixed and counted after 6 days in culture. […]
(§2) Cultured SMPs were fixed in 4% paraformaldehyde (PFA) and stained with 10 μg/ml Hoechst (Invitrogen). […] The images were analyzed and numbers of cells were counted by the built-in software. […] The images were analyzed and percentage of nuclei in myotubes was calculated using a modified ImageJ macro developed in-house. […]
(§3) We hypothesized that the chemical hits enhancing skeletal muscle development in zebrafish blastomeres may likewise promote muscle precursor cell formation and/or expansion in other species. […] Cell number in the resulting colonies was determined after 5 days in culture.

The next test deals with cultured satellite cells. Description: Flow cytometry of CXCR4 and β-1 Integrin on cultured satellite cells. It is filed as cell-based, mouse. To be noted: after 5 days in culture, FACS. The method, then:
FIG. 5C, GFP^+ satellite cells were harvested from β-actin GFP mice and were transplanted into TA muscle of recipient mdx mice, injured 1 day previously by injection of cardiotoxin, either right after isolation or after five days in culture with DMSO or forskolin treatment. […] Scale bars represent 200 μm.
Flow cytometry analysis was performed using a BD LSR II, provided through the Harvard Stem Cell Institute Flow Cytometry Core Facility. Flow cytometry data were collected using DIVA (Becton Dickinson (BD), Franklin Lakes, N.J.) software and analyzed offline using Flowjo software (Tree Star, Inc., Macintosh version 8.1.1, Ashland, Oreg.). Antibodies used for flow cytometry included: APC/Cy7 anti-mouse Ter119, clone Ter119 (1:200, Biolegend 116223), APC/Cy7 anti-mouse CD45, clone 30-F11 (1:200, Biolegend 103116), APC/Cy7 anti-mouse CD11b, clone M1/70 (1:200, Biolegend 101226), APC Anti-mouse Ly-6A/E (Sca-1), clone D7 (1:200, Biolegend 108112), Biotin anti-mouse CD184 (CXCR4, Fusin) (1:100, BD Biosciences 551968), Streptavidin PE-Cy7 (1:100, eBioscience 25-4317-82), PE anti-mouse/rat CD29 Antibody (1:100, Biolegend 102208). Live cells were identified by positive staining with calcein blue (1:1000) (Invitrogen, Carlsbad, Calif.) and negative staining for propidium iodide (PI, 1 μg/mL). […]
On the technique in general: A flow cytometer gives signals particle by particle.

The test system of test [2] is satellite cells from mdx mice. Description: In vitro expansion of mdx satellite cells (cell count). The test is classed as cell-based, mouse. The following applies: 5 days in culture. The method, then:
as §1, §2, §3

The test system of test [3] is cAMP levels in mouse satellite cell cultures. As to the kind of experiment: cAMP-Glo assay in cultured satellite cells. It is filed as cell-based. The method, then:
cAMP assay was performed using the cAMP-Glo™ Assay kit (Promega) according to the manufacturer's protocol.
To test forskolin's effect on satellite cell survival and proliferation, single cells were plated at one cell per well in 96-well plates and treated with forskolin or DMSO. After six days in vitro culture, we quantified the number of wells containing any number of myogenic cells (a measure of cell survival) and the number of cells in those wells (a measure of cell proliferation) (FIG. 3D).

Turning to `C=C[C@@]1(C)CC(=O)[C@]2(O)[C@@]3(C)[C@@H](O)CCC(C)(C)[C@@H]3[C@H](O)[C@H](OC(C)=O)[C@@]2(C)O1` [forskolin], the “total number of cells, fold change compared to DMSO treated cells” value in test [1] (absence of bFGF) is listed as ~2 folds; in test [1] (presence of bFGF), ~2.3 folds. Further, the “frequency of cells co-expressing CXCR4 and β-1 Integrin” value with cultured satellite cells was 78.9%+/−1.52% and ~80%. Further, the “fold change of number of satellite cells compared to DMSO” value in test [2] is ~3.6 folds. The “concentration of cAMP, fold increase compared to DMSO treated cells” value in test [3] (25 μM forskolin) was ~4.5 fold; in test [3] (50 μM forskolin) it was ~5.2 fold; in test [3] (100 μM forskolin), ~5.7 fold.
